Results on 5 compounds are retold here after ChEMBL document CHEMBL1126392, “Semisynthesis and biological activity of taxol analogues: baccatin III 13-(N-benzoyl-(2R,3S)-3-(p-tolyl)isoserinate), baccatin III 13-(N-(p-toluoyl)-2R,3S)-3-phenylisoserinate), baccatin III 13-(N-benzoyl-(2R,3S)-3-(p-trifluoromethylphenyl)isoserinate), and baccatin III …” (1992).

Experiment [1] can be described thus: (§1) Concentration which causes polymerization of 50 % of the tubulin present, in 15 min at 37 C, as a ratio in comparison wth taxol (taxol ED50 = 0.7 to 0.8 uM). The experiment is classed as functional.
For experiment [2], the target named is Tubulin alpha chain (Sus scrofa) (UniProt P02550). The experiment is described as §1. The experiment is classed as functional.
Experiment [3] concerns B16. The experiment in a line: Compound was evaluated for the cytotoxicity against B16 melanoma cells after 40h incubation expressed as ratio relative to that of taxol. The experiment is classed as functional, Mus musculus.
Experiment [4] deals with B16. Briefly: Compound was evaluated for the cytotoxicity against B16 melanoma cells after 40h incubation expressed as ratio relative to that of taxol; NA - No cytotoxicity. Conditions: Mus musculus. The experiment is classed as functional, cell-based.

Activity calls are given as the source filed them. The calls are words filed in the database; no cut-off is given here.

Chain of Tubulin alpha chain (Sus scrofa) (P02550 whole entry, looked up): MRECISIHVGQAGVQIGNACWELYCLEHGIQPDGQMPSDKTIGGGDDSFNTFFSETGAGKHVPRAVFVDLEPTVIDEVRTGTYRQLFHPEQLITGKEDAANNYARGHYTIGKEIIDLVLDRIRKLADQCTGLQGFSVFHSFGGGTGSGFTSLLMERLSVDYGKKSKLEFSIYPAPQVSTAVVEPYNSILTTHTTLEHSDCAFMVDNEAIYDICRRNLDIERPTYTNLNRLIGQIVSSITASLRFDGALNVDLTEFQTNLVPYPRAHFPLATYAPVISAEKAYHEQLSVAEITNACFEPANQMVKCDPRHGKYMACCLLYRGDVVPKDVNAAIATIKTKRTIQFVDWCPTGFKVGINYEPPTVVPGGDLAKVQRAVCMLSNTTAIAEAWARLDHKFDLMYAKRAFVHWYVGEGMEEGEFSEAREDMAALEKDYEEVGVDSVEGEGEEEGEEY

In the case of `CC(=O)O[C@H]1C(=O)[C@@]2(C)[C@H]([C@H](OC(=O)c3ccccc3)[C@]3(O)C[C@H](OC(=O)[C@H](O)[C@@H](NC(=O)c4ccccc4)c4ccccc4)C(C)=C1C3(C)C)[C@]1(OC(C)=O)CO[C@@H]1C[C@@H]2O`, in experiment [1], the Ratio is 0.7.
In the case of `CC(=O)O[C@H]1C(=O)[C@@]2(C)[C@H]([C@H](OC(=O)c3ccccc3)[C@]3(O)C[C@H](OC(=O)[C@H](O)[C@@H](NC(=O)c4ccccc4)c4ccc(C)cc4)C(C)=C1C3(C)C)[C@]1(OC(C)=O)CO[C@@H]1C[C@@H]2O`, the Ratio in experiment [2] came out at 2.4. Further, the “ED50 / ED50 (taxol)” value in experiment [3] was 3.
Turning to `CC(=O)O[C@H]1C(=O)[C@@]2(C)[C@H]([C@H](OC(=O)c3ccccc3)[C@]3(O)C[C@H](OC(=O)[C@H](O)[C@@H](NC(=O)c4ccc(C(F)(F)F)cc4)c4ccccc4)C(C)=C1C3(C)C)[C@]1(OC(C)=O)CO[C@@H]1C[C@@H]2O`, in experiment [2], the Ratio was 6. The “ED50 / ED50 (taxol)” value in experiment [3] is on record as 17.7.
As to `CC(=O)O[C@H]1C(=O)[C@@]2(C)[C@H]([C@H](OC(=O)c3ccccc3)[C@]3(O)C[C@H](OC(=O)[C@H](O)[C@@H](NC(=O)c4ccc(C)cc4)c4ccccc4)C(C)=C1C3(C)C)[C@]1(OC(C)=O)CO[C@@H]1C[C@@H]2O`, the Ratio in experiment [2] came out at 1.6. In addition, the “ED50 / ED50 (taxol)” value in experiment [3] is on record as 1.4.
Take `CC(=O)O[C@H]1C(=O)[C@@]2(C)[C@H]([C@H](OC(=O)c3ccccc3)[C@]3(O)C[C@H](OC(=O)[C@H](O)[C@@H](NC(=O)c4ccccc4)c4ccc(C(F)(F)F)cc4)C(C)=C1C3(C)C)[C@]1(OC(C)=O)CO[C@@H]1C[C@@H]2O`: in experiment [4], the “ED50 / ED50 (taxol)” value was “inactive”. Further, the Ratio entry in experiment [2] was “inactive”.
